We go through 20 compounds from US20240174690A1, “ANNULATED 2-AMINO-3-CYANO THIOPHENES AND DERIVATIVES FOR THE TREATMENT OF CANCER” (BOEHRINGER INGELHEIM INTERNATIONAL GMBH, priority 2021, published 2024).

Each structure is given as a SMILES string. Bounds are passed on as bounds.

One data set concerns the target CYP3A4 (Homo sapiens (Human), UniProt P08684). Briefly: Mechanism based inhibition of CYP3A4 assay (MBI 3A4). It counts as in vitro ADME. Conditions: hydroxy-midazolam formation after 30 min vs 0 min preincubation, 25 uM, human liver microsomes. As for the experimental part:
After preincubation, the incubate is diluted 1:10 and the substrate midazolam is added for the main incubation (15 min). The main incubation is quenched with acetonitrile and the formation of hydroxy-midazolam is quantified via LC/MS-MS. The formation of hydroxy-midazolam from the 30 min preincubation relative to the formation from the 0 min preincubation is used as a readout. Values of less than 100% mean that the substrate midazolam is metabolized to a lower extent upon 30 min preincubation compared to 0 min preincubation. In general low effects upon 30 min preincubation are desired (corresponding to values close to 100%/not different to the values determined with water control).

A short description of data set [1]: Metabolic (microsomal) stability assay, human liver microsomes (HLM). It is filed as in vitro ADME. Particulars: predicted clearance as percent of liver blood flow, 1 μM. In a few lines: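 LC-MS/MS tracked parent disappearance at 0, 5, 15, 30 and 60 min in NADPH-initiated incubations with 1 mg/mL human microsomal protein and 1 μM compound at 37°C, pH 7.5. First-order fits gave intrinsic clearance, which was scaled up and reported as % QH. NADPH-free controls were also run.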

The subject of data set [2] is KRAS G12C-dependent Ba/F3 cells. Briefly: Ba/F3 proliferation assay, KRAS G12C. It is filed as cell-based. Particulars: Mus musculus, BaF3, 72 h, AlamarBlue. The method, boiled down:
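Transforming KRAS G12 mutants replaced IL-3 dependence in retrovirally engineered Ba/F3 cells, with puromycin omitted about ten days before testing. Growth under compound was quantified with an AlamarBlue fluorescent viability stain, in duplicate, by curve fitting.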

The test system of the next data set is SK-CO-1 cells. Briefly: SK-CO-1 CTG proliferation assay (120 h) (CRC, G12V). It is filed as cell-based. Particulars: Homo sapiens; SK-CO-1 cells (CRC, G12V), CTG 120 h. The method, boiled down:
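SK-CO-1 colorectal cells (KRAS G12V), 500 per well in EMEM + 10% FCS, dosed with compound the day after seeding and grown 120 h at 37 °C. Viability by CellTiter-Glo luminescence as percent of DMSO control; IC50 from four-parameter non-linear regression.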

For another data set, the system named is NCI-H2122 cells. Description: NCI-H2122 CTG proliferation assay (120 h) (NSCLC, G12C). It is filed as cell-based. Particulars: Homo sapiens. In a few lines:
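NCI-H2122 cells (KRAS G12C NSCLC), 200 per well in RPMI with 10% FCS, were dosed with compound on day 1 and incubated 120 h at 37 °C. Viability was read by CellTiter-Glo luminescence as percent of DMSO control, and IC50 was fitted with a four-parameter model.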

CYP3A4, sequence (P08684 whole entry): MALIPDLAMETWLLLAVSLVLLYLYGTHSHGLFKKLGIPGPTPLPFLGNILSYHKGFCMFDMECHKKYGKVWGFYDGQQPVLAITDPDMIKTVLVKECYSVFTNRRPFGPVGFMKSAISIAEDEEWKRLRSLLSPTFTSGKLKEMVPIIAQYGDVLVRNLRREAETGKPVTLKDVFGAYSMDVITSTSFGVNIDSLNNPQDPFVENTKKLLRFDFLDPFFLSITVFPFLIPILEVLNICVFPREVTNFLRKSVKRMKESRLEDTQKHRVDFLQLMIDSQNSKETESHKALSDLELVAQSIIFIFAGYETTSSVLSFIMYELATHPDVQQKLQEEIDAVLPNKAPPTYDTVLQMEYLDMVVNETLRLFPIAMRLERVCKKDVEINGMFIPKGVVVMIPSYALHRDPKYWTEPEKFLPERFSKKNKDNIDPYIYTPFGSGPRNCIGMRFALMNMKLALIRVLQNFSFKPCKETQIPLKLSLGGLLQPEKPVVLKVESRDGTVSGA

For orientation: IC50 means the concentration that gives 50% inhibition. Regarding `C[C@H](Oc1cc(C2COCCO2)nc(-c2noc3c2CCC[C@@]32CCCc3sc(N)c(C#N)c32)n1)[C@@H]1CCCN1C` (stereo partly shown) [II-95], the “MBI 3A4” value on CYP3A4 came to 68%. Moreover, the “HLM QH” value in data set [1] is listed as 37%. Also, the figures for the IC50 (in data set [2]; in the data set with SK-CO-1 cells; in the data set with NCI-H2122 cells) were 0.03 µM, 0.341 µM and 1.42 µM, respectively.

As for `C[C@H](Oc1cc(N2CC[C@H](N(C)C)C2)nc(-c2noc3c2CCC[C@@]32CCCc3sc(N)c(C#N)c32)n1)[C@@H]1CCCN1C` [II-49], on CYP3A4, the “MBI 3A4” value stood at 75%. Further, in data set [1], the “HLM QH” value is on record as less than 24%. Further, the IC50 was 0.329 µM in data set [2], 0.872 µM in the data set on SK-CO-1 cells and 2.84 µM with NCI-H2122 cells.

For the compound `C[C@H](Oc1cc(-c2ccn(C[C@@H](C)O)n2)nc(-c2noc3c2CCC[C@@]32CCCc3sc(N)c(C#N)c32)n1)[C@@H]1CCCN1C` [II-117], the “MBI 3A4” value on CYP3A4 is 77%. In addition, the “HLM QH” value in data set [1] is reported as less than 24%. Also, the figures for the concentration for half-maximal inhibition (IC50) (in data set [2]; in the data set on SK-CO-1 cells; in the data set on NCI-H2122 cells) were 0.007 µM, 0.024 µM and 0.047 µM, respectively.

For the compound `C[C@H](Oc1cc(-n2ccc(Br)n2)nc(-c2noc3c2CCC[C@@]32CCCc3sc(N)c(C#N)c32)n1)[C@@H]1CCCN1C` [II-110], at CYP3A4, the “MBI 3A4” value was determined as 67%. The “HLM QH” value in data set [1] is reported as 47%. The half-inhibitory concentration (IC50) in data set [2] was 0.014 µM; in the data set on SK-CO-1 cells it was 0.126 µM; in the data set on NCI-H2122 cells, 0.953 µM.

Take `C[C@H](Oc1cc(-n2cc(C3CC3)nn2)nc(-c2noc3c2CCC[C@@]32CCCc3sc(N)c(C#N)c32)n1)[C@@H]1CCCN1C` [II-118]: the “MBI 3A4” value at CYP3A4 worked out at 45%. In data set [1], the “HLM QH” value is reported as 25%. The IC50 in data set [2] came to 0.025 µM; in the data set on SK-CO-1 cells, 3.87 µM; in the data set with NCI-H2122 cells it was 1.01 µM.

Consider `C[C@H](Oc1cc(N2C[C@H](C)N[C@@H](C)C2)nc(-c2noc3c2CCC[C@@]32CCCc3sc(N)c(C#N)c32)n1)[C@@H]1CCCN1C` [II-56], for which the “MBI 3A4” value on CYP3A4 amounted to 73%. The “HLM QH” value in data set [1] is listed as less than 24%. Further, the IC50 is 0.233 µM in data set [2], 0.554 µM in the data set on SK-CO-1 cells and 3.19 µM with NCI-H2122 cells.

`CNC(=O)c1cn(-c2cc(O[C@@H](C)[C@@H]3CCCN3C)nc(-c3noc4c3CCC[C@@]43CCCc4sc(N)c(C#N)c43)n2)nn1` [II-122]: the “MBI 3A4” value at CYP3A4 came to 68%. Besides, the “HLM QH” value in data set [1] was 35%. Moreover, the IC50 in data set [2] amounted to 0.021 µM; with SK-CO-1 cells, 0.052 µM; in the data set with NCI-H2122 cells it was 0.961 µM.

Consider `C[C@H](Oc1cc(-c2cnn(C)n2)nc(-c2noc3c2CCC[C@@]32CCCc3sc(N)c(C#N)c32)n1)[C@@H]1CCCN1C` [II-86], for which, at CYP3A4, the “MBI 3A4” value was found to be 68%. For the same compound, in data set [1], the “HLM QH” value was 35%. For the same compound, the values for the IC50 (in data set [2]; with SK-CO-1 cells; with NCI-H2122 cells) were 0.025 µM, 0.121 µM and 2.08 µM, respectively.

Take `C[C@H](O)Cn1ccc(-c2cc(O[C@@H](C)[C@@H]3CCCN3C)nc(-c3noc4c3CCC[C@@]43CCCc4sc(N)c(C#N)c43)n2)n1` [II-112]: the “MBI 3A4” value on CYP3A4 was determined as 81%. Besides, the “HLM QH” value in data set [1] was less than 24%. Further, the IC50 in data set [2] came to 0.011 µM; with SK-CO-1 cells, 0.034 µM; in the data set with NCI-H2122 cells it was 0.197 µM.

Regarding `C[C@H](Oc1cc([C@@H]2CCOC2)nc(-c2noc3c2CCC[C@@]32CCCc3sc(N)c(C#N)c32)n1)[C@@H]1CCCN1C` [II-94], the “MBI 3A4” value on CYP3A4 is 71%. Also, the “HLM QH” value in data set [1] is on record as 48%. Also, the IC50 is 0.005 µM in data set [2], 0.019 µM in the data set with SK-CO-1 cells and 0.834 µM in the data set with NCI-H2122 cells.

With `C[C@H](Oc1cc(-n2ccc(-c3ccccn3)n2)nc(-c2noc3c2CCC[C@@]32CCCc3sc(N)c(C#N)c32)n1)[C@@H]1CCCN1C` [II-119], the “MBI 3A4” value on CYP3A4 is given as 52%. Also, in data set [1], the “HLM QH” value was less than 24%. Moreover, the IC50 was determined as 0.008 µM in data set [2], 0.037 µM in the data set with SK-CO-1 cells and 0.251 µM with NCI-H2122 cells.

On to `C[C@H](Oc1cc(N2CCC(C#N)C2)nc(-c2noc3c2CCC[C@@]32CCCc3sc(N)c(C#N)c32)n1)[C@@H]1CCCN1C` (stereo partly shown) [II-99], for which the “MBI 3A4” value on CYP3A4 worked out at 78%. The “HLM QH” value in data set [1] is less than 24%. In addition, the values for the IC50 (in data set [2]; in the data set with SK-CO-1 cells; with NCI-H2122 cells) were 0.028 µM, 0.159 µM and 1.17 µM, respectively.

As for `CC(=O)N1CC=C(c2cc(O[C@@H](C)[C@@H]3CCCN3C)nc(-c3noc4c3CCC[C@@]43CCCc4sc(N)c(C#N)c43)n2)CC1` [II-81], the “MBI 3A4” value on CYP3A4 worked out at 62%. The “HLM QH” value in data set [1] is listed as less than 24%. The figures for the IC50 (in data set [2]; with SK-CO-1 cells; with NCI-H2122 cells) were 0.049 µM, 0.032 µM and 1.68 µM, respectively.

`C[C@H](Oc1cc(-n2cncn2)nc(-c2noc3c2CCC[C@@]32CCCc3sc(N)c(C#N)c32)n1)[C@@H]1CCCN1C` [II-70]: the “MBI 3A4” value on CYP3A4 was 64%. In data set [1], the “HLM QH” value is recorded as 61%. Moreover, the IC50 in data set [2] came out at 0.025 µM; with SK-CO-1 cells it was 0.028 µM; with NCI-H2122 cells it was 0.891 µM.

`Cc1cn(C)nc1-c1cc(O[C@@H](C)[C@@H]2CCCN2C)nc(-c2noc3c2CCC[C@@]32CCCc3sc(N)c(C#N)c32)n1` [II-68]: the “MBI 3A4” value on CYP3A4 came to 74%. The “HLM QH” value in data set [1] was less than 24%. For the same compound, the IC50 in data set [2] is 0.056 µM; in the data set with SK-CO-1 cells it was 5.57 µM; in the data set on NCI-H2122 cells, 1.23 µM.

In the case of `CO[C@@H]1C[C@@H]([C@H](C)Oc2cc(-n3ccnc3)nc(-c3noc4c3CCC[C@@]43CCCc4sc(N)c(C#N)c43)n2)N(C)C1` [II-58], at CYP3A4, the “MBI 3A4” value came to 68%. Besides, the “HLM QH” value in data set [1] is 46%. Further, the IC50 was found to be 0.041 µM in data set [2], 0.09 µM in the data set on SK-CO-1 cells and 0.904 µM in the data set on NCI-H2122 cells.

For the compound `COC(=O)c1ccc(-c2cc(O[C@@H](C)[C@@H]3CCCN3C)nc(-c3noc4c3CCC[C@@]43CCCc4sc(N)c(C#N)c43)n2)o1` [II-114], the “MBI 3A4” value on CYP3A4 came to 85%. The “HLM QH” value in data set [1] was 34%. The IC50 in data set [2] worked out at 0.016 µM; with SK-CO-1 cells, 0.064 µM; in the data set with NCI-H2122 cells it was 0.68 µM.

Turning to `C[C@H](Oc1cc(-c2cn[nH]c2)nc(-c2noc3c2CCC[C@@]32CCCc3sc(N)c(C#N)c32)n1)[C@@H]1CCCN1C` [II-87], the “MBI 3A4” value on CYP3A4 is 64%. Also, the “HLM QH” value in data set [1] is less than 24%. The values for the IC50 (in data set [2]; with SK-CO-1 cells; in the data set with NCI-H2122 cells) were 0.047 µM, 0.071 µM and 1.99 µM, respectively.

Regarding `C[C@H](Oc1cc(-n2cc(-c3cccnc3)nn2)nc(-c2noc3c2CCC[C@@]32CCCc3sc(N)c(C#N)c32)n1)[C@@H]1CCCN1C` [II-123], the “MBI 3A4” value at CYP3A4 is 64%. Besides, the “HLM QH” value in data set [1] is recorded as 28%. The IC50 is 0.015 µM in data set [2], 0.096 µM in the data set on SK-CO-1 cells and 0.878 µM in the data set on NCI-H2122 cells.

As for `C[C@H](Oc1cc(C2CCOCC2)nc(-c2noc3c2CCC[C@@]32CCCc3sc(N)c(C#N)c32)n1)[C@@H]1CCCN1C` [II-76], the “MBI 3A4” value at CYP3A4 is on record as 73%. The “HLM QH” value in data set [1] is 31%. For the same compound, the 50% inhibitory concentration (IC50) in data set [2] was determined as 0.018 µM; in the data set with SK-CO-1 cells, 0.12 µM; in the data set on NCI-H2122 cells it was 1.3 µM.
